Measured values as given in patent US20260256763A1, “Aromatic Amide Derivative, And Preparation Method Therefor And Use Thereof” (Zhejiang Hisun Pharmaceutical Co., Ltd., priority 2023, published 2026).

Key:
recombinant human KIF18A = target: T1, recombinant human KIF18A (Homo sapiens, UniProt Q8NI77); experiment: Inhibition on KIF18A enzyme activity (ADP-Glo); type: biochemical; details: recombinant human KIF18A 100 nM, ATP 60 μM
T1 construct: purchased GenScript
Method in brief: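 Recombinant human KIF18A (100 nM final) was preincubated with compound for 20 min at room temperature, then ATP (60 μM final) was added for 20 min. ADP formed was quantified by ADP-Glo as a luminescence read-out.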

[1] = Pharmacokinetic testing in mice; type: in vivo; details: male, mouse, ICR mice, plasma
Method: ICR mice were taken as test animals, and intragastrically administered with a control compound AMG650 and compounds 1, 18 and 29 of the present invention, and then drug concentrations in plasma at different moments were determined by an LC/MS/MS method, so as to study pharmacokinetic characteristics of the compounds of the present invention in the mice.
Control compound AMG650, and Compounds 1, 18 and 29.
ICR mice, male, 27.3-30.3 g, purchased from Vital River Laboratory Animal Technology Co., Ltd.
A proper amount of to-be-tested compound was weighed, proper amounts of DMA (N,N-dimethylacetamide), CrEL (polyoxyethylene 35 castor oil) and 5% GS (5% glucose injection) were added in sequence, and the obtained system was evenly mixed by ultrasonic vortex to prepare a 1 mg/mL preparation, wherein DMA, CrEL and 5% GS=10:10:80 (v:v:v).
ICR mice in each to-be-tested compound injection group (9 mice in each group) were fasted overnight and then intragastrically administered with the compound (PO, an administration dosage of the compound was 10 mg/kg and an administration volume of the compound was 10 mL/kg), and were fed 4 hours after administration.
0.25 hours, 0.5 hours, 1 hour, 2 hours, 4 hours, 8 hours, 10 hours and 24 hours before and after administration, about […] of blood was collected through an orbit, and a complete blood sample was placed in an EDTA-K2-containing anticoagulation tube. The collected blood sample was placed on ice, and plasma was centrifugally separated (centrifugation conditions: 1500 g, 10 minutes). The collected plasma was stored at −40~−20° C. before analysis.
A content of the to-be-tested compound in the plasma of the mice after intragastric administration was determined by LC-MS/MS.

OVCAR-3 cells = experiment: Inhibition on OVCAR-3 cell proliferation (CellTiter-Glo); type: cell-based; details: Homo sapiens, OVCAR-3 cells (TP53 R248Q mutation), 72 hours
Method in brief: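 OVCAR-3 (TP53 R248Q) cells seeded at 1000/well overnight, then treated 72 h at 37 °C with compound at final 1000 nM–0.015 nM. CellTiter-Glo luminescence read; inhibition versus 0.3% DMSO control, IC50 by nonlinear regression on log concentration.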

T1 sequence (Q8NI77 whole entry): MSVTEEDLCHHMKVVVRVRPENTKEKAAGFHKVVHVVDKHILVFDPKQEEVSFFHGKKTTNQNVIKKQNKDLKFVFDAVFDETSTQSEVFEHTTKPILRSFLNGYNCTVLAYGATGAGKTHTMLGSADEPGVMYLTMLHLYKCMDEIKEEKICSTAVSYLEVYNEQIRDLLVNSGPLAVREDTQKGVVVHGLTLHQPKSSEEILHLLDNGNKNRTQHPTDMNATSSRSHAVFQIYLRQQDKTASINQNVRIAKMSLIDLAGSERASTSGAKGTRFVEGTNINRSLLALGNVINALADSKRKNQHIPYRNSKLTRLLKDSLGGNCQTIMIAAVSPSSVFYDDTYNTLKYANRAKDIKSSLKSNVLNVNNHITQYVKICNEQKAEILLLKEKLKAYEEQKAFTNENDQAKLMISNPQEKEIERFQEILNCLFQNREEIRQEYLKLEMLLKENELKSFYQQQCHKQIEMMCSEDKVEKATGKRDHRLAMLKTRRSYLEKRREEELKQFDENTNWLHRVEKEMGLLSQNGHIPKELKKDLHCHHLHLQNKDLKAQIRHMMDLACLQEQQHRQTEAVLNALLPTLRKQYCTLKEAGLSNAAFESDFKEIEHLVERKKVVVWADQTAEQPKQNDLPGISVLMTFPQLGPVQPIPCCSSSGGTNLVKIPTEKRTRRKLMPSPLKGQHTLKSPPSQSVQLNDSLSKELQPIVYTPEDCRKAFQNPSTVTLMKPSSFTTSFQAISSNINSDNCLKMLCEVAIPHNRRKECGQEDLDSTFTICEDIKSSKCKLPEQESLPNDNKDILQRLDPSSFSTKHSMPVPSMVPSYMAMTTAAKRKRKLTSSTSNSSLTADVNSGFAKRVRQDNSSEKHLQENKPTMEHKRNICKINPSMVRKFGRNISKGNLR
T1 sequence (P68363 whole entry partner): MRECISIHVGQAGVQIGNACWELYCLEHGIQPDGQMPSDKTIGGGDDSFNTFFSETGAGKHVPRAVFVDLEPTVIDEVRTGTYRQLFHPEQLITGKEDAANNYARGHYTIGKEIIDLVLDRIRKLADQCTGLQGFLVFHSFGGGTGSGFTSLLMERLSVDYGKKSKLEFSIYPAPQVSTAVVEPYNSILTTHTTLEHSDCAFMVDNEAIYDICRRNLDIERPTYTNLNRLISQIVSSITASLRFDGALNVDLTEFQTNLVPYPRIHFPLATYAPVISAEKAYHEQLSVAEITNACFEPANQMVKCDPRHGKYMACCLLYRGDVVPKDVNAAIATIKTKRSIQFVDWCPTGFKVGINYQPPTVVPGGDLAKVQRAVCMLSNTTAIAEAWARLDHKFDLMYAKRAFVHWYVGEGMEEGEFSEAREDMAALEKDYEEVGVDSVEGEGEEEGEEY
T1 sequence (Q9BVA1 whole entry partner): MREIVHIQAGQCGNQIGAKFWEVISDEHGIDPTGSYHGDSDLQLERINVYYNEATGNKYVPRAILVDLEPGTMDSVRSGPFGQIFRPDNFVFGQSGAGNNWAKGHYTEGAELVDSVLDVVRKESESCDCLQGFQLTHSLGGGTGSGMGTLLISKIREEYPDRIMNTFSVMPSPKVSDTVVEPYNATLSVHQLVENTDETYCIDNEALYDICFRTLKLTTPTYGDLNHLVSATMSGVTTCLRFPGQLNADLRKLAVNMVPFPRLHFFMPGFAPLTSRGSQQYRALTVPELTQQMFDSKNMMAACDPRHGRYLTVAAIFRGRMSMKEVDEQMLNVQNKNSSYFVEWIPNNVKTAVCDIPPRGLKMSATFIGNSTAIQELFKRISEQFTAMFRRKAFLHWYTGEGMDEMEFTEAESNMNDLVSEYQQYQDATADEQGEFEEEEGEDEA

For CCS(=O)(=O)Nc1ccc(C(=O)Nc2cc3c(c(N4CCC(F)(F)CC4)c2)OCC3)c(N2CCC3(CC2)CC3)c1 [Example 1, N-(7-(4,4-difluoropiperidin-1-yl)-2,3-dihydrobenzofuran-5-yl)-4-(ethylsulfonamido)-2-(6-azaspiro[2.5]octan-6-yl)benzamide], which IC50 (recombinant human KIF18A) is on record?
Its IC50 is 52 nM.

And the half-life ([1]; 10 mg/kg, oral administration (10 mg/mL), read-out: Half-life period T½ (converted))?
Its half-life is 7.36 h.

What about the Cmax ([1]; 10 mg/kg, oral administration (10 mg/mL), read-out: Plasma concentration Cmax) of the same molecule?
Its Cmax is 12400 ng/mL.

What about the AUC(0-inf) ([1]; oral administration (10 mg/kg), read-out: Area under the curve AUC0-∞) of the same molecule?
Its AUC(0-inf) is 95200 ng·h/mL.

And the IC50 (OVCAR-3 cells)?
The IC50 was 0.75 nM.
